Data: patent US20150105252A1, “SUBSTITUTED PYRAZOLES AS HERBICIDES” (E I DU PONT DE NEMOURS AND COMPANY, priority 2013, published 2015)

What was measured:
cocklebur = assay: Test C preemergence; format: in vivo, Xanthium strumarium; settings: for Plant response rating (scale of 0 to 100), Cocklebur: Preemergence, 250 g ai/ha; for Cocklebur plant response rating / Plant response rating, Cocklebur: preemergence; for Plant response rating, Cocklebur: 62 g ai/ha, scale 0 to 100, 0 = no effect, 100 = complete control
From the text: (§1) Seeds of plant species selected from blackgrass (Alopecurus myosuroides), ryegrass, Italian (Italian ryegrass, Lolium multiflorum), wheat (winter wheat, Triticum aestivum), galium (catchweed bedstraw, Galium aparine), corn (Zea mays), crabgrass, large (large crabgrass, Digitaria sanguinalis), foxtail, giant (giant foxtail, Setaria faberii), johnsongrass (Sorghum halepense), lambsquarters (Chenopodium album), morningglory (Ipomoea coccinea), nutsedge, yellow (yellow nutsedge, Cyperus esculentus), pigweed (redroot pigweed, Amaranthus retroflexus), ragweed (common ragweed, Ambrosia elation), soybean (Glycine max), barnyardgrass (Echinochloa crus-galli), oilseed rape (Brassica napus), waterhemp (common waterhemp, Amaranthus rudis), oat, wild (wild oat, Avena fatua), kochia (Kochia scoparia), Surinam grass (Brachiaria decumbens), foxtail, green (green foxtail, Setaria viridis), goosegrass (Eleusine indica), bromegrass, downy (downy bromegrass, Bromus tectorum), nightshade (eastern black nightshade, Solanum ptycanthum), cocklebur (common cocklebur, Xanthium strumarium), cupgrass, woolly (woolly cupgrass, Eriochloa villosa), bermudagrass (Cynodon dactylon), sunflower, (common oilseed sunflower, Helianthus annuus), Russian thistle (Salsola kali), and velvetleaf (Abutilon theophrasti) were planted into a blend of loam soil and sand and treated preemergence with test chemicals formulated in a non-phytotoxic solvent mixture which included a surfactant.
(§2) At the same time, plants selected from these crop and weed species and also chickweed (common chickweed, Stellaria media), canarygrass (littleseed canarygrass, Phalaris minor), and deadnettle (henbit deadnettle, Lamium amplexicaule), were planted in pots containing Redi-Earth® planting medium (Scotts Company, 14111 Scottslawn Road, Marysville, Ohio 43041) comprising spaghnum peat moss, vermiculite, wetting agent and starter nutrients and treated with postemergence applications of test chemicals formulated in the same manner. Plants ranged in height from 2 to 18 cm (1- to 4-leaf stage) for postemergence treatments. Treated plants and controls were maintained in a greenhouse for 13 to 15 days, after which time all species were compared to controls and visually evaluated. Plant response ratings, summarized in Table C, are based on a scale of 0 to 100 where 0 is no effect and 100 is complete control. A dash (-) response means no test result.

bermudagrass = assay: Test C postemergence; format: in vivo, Cynodon dactylon; settings: for Bermudagrass plant response rating: scale 0 to 100
From the text: as §1, §2

sunflower = assay: Test C preemergence; format: in vivo, Helianthus annuus; settings: for Plant response rating (scale of 0 to 100), Sunflower: Preemergence, 250 g ai/ha; for Sunflower plant response rating / Plant response rating, Sunflower: preemergence; for Plant response rating, Sunflower: 62 g ai/ha, scale 0 to 100, 0 = no effect, 100 = complete control
From the text: as §1, §2

goosegrass = assay: Test C preemergence; format: in vivo, Eleusine indica; settings: for Plant response rating (scale of 0 to 100), Goosegrass: Preemergence, 250 g ai/ha; for Goosegrass plant response rating / Plant response rating, Goosegrass: preemergence; for Plant response rating, Goosegrass: 62 g ai/ha, scale 0 to 100, 0 = no effect, 100 = complete control
From the text: as §1, §2

Surinam grass [1] = assay: Test C postemergence; format: in vivo, Brachiaria decumbens; settings: for Surinam Grass plant response rating: 62 g ai/ha, scale 0 to 100
From the text: as §1, §2

Italian ryegrass = assay: Test F preemergence; format: in vivo, Lolium multiflorum
From the text: (§3) Seeds of plant species selected from corn (Zea mays), soybean (Glycine max), velvetleaf (Abutilon theophrasti), lambsquarters (Chenopodium album), wild poinsettia (Euphorbia heterophylla), pigweed, palmer (palmer pigweed, Amaranthus palmeri), common waterhemp (Amaranthus rudis), surinam grass (Brachiaria decumbens), large crabgrass (Digitaria sanguinalis), crabgrass, Brazil (Brazilian crabgrass, Digitaria horizontalis), fall panicum (Panicum dichotomiflorum), giant foxtail (Setaria faberii), green foxtail (Setaria viridis), goosegrass (Eleusine indica), johnsongrass (Sorghum halepense), common ragweed (Ambrosia elation), barnyardgrass (Echinochloa crus-galli), southern sandbur (Cenchrus echinatus), arrowleaf sida (Sida rhombifolia), Italian ryegrass (Lolium multiflorum), dayflower, VA (Virginia (VA) dayflower, Commelina virginica), field bindweed (Convolvulus arvensis), cocklebur (common cocklebur, Xanthium strumarium), morningglory (Ipomoea coccinea), nightshade (eastern black nightshade, Solanum ptycanthum), kochia (Kochia scoparia), yellow nutsedge (Cyperus esculentus), and hairy beggarticks (Bidens pilosa), were planted into a silt loam soil and treated preemergence with test chemicals formulated in a non-phytotoxic solvent mixture which included a surfactant.
(§4) At the same time, plants from these crop and weed species and also horseweed (Canada horseweed, Conyza canadensis), smartweed (ladysthumb smartweed, Polygonum persicaria), waterhemp_RES1, (ALS & Triazine resistant common waterhemp, Amaranthus rudis), and waterhemp_RES2, (ALS & HPPD resistant common waterhemp, Amaranthus rudis) were treated with postemergence applications of test chemicals formulated in the same manner. Plants ranged in height from 2 to 18 cm for postemergence treatments (1- to 4-leaf stage). Treated plants and controls were maintained in a greenhouse for 14 to 21 days, after which time all species were compared to controls and visually evaluated. Plant response ratings, summarized in Table F, are based on a scale of 0 to 100 where 0 is no effect and 100 is complete control. A dash (-) response means no test result.

Surinam grass [2] = assay: Test F preemergence; format: in vivo, Brachiaria decumbens
From the text: as §3, §4

velvetleaf = assay: Test F preemergence; format: in vivo, Abutilon theophrasti
From the text: as §3, §4

dayflower, VA = assay: Test F preemergence; format: in vivo, Commelina virginica
From the text: as §3, §4

green foxtail = assay: Test F preemergence; format: in vivo, Setaria viridis
From the text: as §3, §4

soybean = assay: Test F preemergence; format: in vivo, Glycine max
From the text: as §3, §4

[3] = 31 g ai/ha, scale 0 to 100 (0 no effect, 100 complete control), 13 to 15 days
[4] = 125 g ai/ha, scale 0 to 100, 0 is no effect, 100 is complete control
[5] = postemergence, 250 g ai/ha, scale 0 to 100 (0 no effect, 100 complete control)
[6] = postemergence, 125 g ai/ha, scale 0 to 100, 0 no effect, 100 complete control
[7] = 125 g ai/ha, scale 0 to 100, 0 no effect, 100 complete control
[8] = 250 g ai/ha, scale 0 to 100 (0 no effect, 100 complete control)
[9] = Preemergence, 31 g ai/ha, scale 0 to 100
[10] = Preemergence, 62 g ai/ha, scale 0 to 100
[11] = Preemergence, 125 g ai/ha, scale 0 to 100
[12] = preemergence, 8 g ai/ha, scale 0 to 100, 100 is complete control
[13] = preemergence, 16 g ai/ha, scale 0 to 100, 100 is complete control
[14] = Preemergence, 250 g ai/ha, scale 0 to 100

CCONC(=O)c1cc(CC)n(Cc2cccc(OC(F)(F)F)c2)n1 [Compound 72]
Plant response rating (scale of 0 to 100), Cocklebur (cocklebur): 100
Cocklebur plant response rating (cocklebur; [3]): 0
Plant response rating, Cocklebur (cocklebur; 13 to 15 days): 0
Cocklebur plant response rating (cocklebur; [4]): 10
Bermudagrass plant response rating (bermudagrass; Postemergence, 31 g ai/ha): 0
Bermudagrass plant response rating (bermudagrass; postemergence, 62 g ai/ha): 0
Plant response rating, Bermudagrass (bermudagrass; [5]): 20
Plant response rating, Bermudagrass (bermudagrass; [6]): 15
Plant response rating (scale of 0 to 100), Sunflower (sunflower): 20
Sunflower plant response rating (sunflower; [3]): 0
Plant response rating, Sunflower (sunflower; 13 to 15 days): 0
Sunflower plant response rating (sunflower; [4]): 5
Plant response rating (scale of 0 to 100), Goosegrass (goosegrass): 98
Goosegrass plant response rating (goosegrass; [3]): 75
Plant response rating, Goosegrass (goosegrass; 13 to 15 days): 98
Goosegrass plant response rating (goosegrass; [4]): 98
Surinam Grass plant response rating (Surinam grass [1]): 10
Plant response rating, Surinam Grass (Surinam grass [1]; [7]): 10
Plant response rating, Surinam Grass (Surinam grass [1]; [8]): 15

Cc1cc(C(=O)NCC(F)(F)F)nn1Cc1ccnc(C(F)(F)F)c1 [Compound 74]
Plant response rating (scale of 0 to 100), Cocklebur (cocklebur): 100
Cocklebur plant response rating (cocklebur; [3]): 100
Plant response rating, Cocklebur (cocklebur; 13 to 15 days): 100
Cocklebur plant response rating (cocklebur; [4]): 100
Bermudagrass plant response rating (bermudagrass; Postemergence, 31 g ai/ha): 5
Bermudagrass plant response rating (bermudagrass; postemergence, 62 g ai/ha): 5
Plant response rating, Bermudagrass (bermudagrass; [5]): 5
Plant response rating, Bermudagrass (bermudagrass; [6]): 5
Plant response rating (scale of 0 to 100), Sunflower (sunflower): 95
Sunflower plant response rating (sunflower; [3]): 10
Plant response rating, Sunflower (sunflower; 13 to 15 days): 40
Sunflower plant response rating (sunflower; [4]): 75
Plant response rating (scale of 0 to 100), Goosegrass (goosegrass): 100
Goosegrass plant response rating (goosegrass; [3]): 75
Plant response rating, Goosegrass (goosegrass; 13 to 15 days): 85
Goosegrass plant response rating (goosegrass; [4]): 100
Surinam Grass plant response rating (Surinam grass [1]): 10
Plant response rating, Surinam Grass (Surinam grass [1]; [7]): 15
Plant response rating, Surinam Grass (Surinam grass [1]; [8]): 25

CCc1cc(-c2ccc(C(F)(F)F)cc2)nn1Cc1ccnc(C(F)(F)F)c1 [Compound 110]
Plant response rating, Italian Ryegrass (Italian ryegrass; [9]): 20
Plant response rating, Italian Ryegrass (Italian ryegrass; [10]): 20
Plant response rating, Italian Ryegrass (Italian ryegrass; [11]): 60
Plant response rating, Italian Ryegrass (Italian ryegrass; [12]): 0
Plant response rating, Italian Ryegrass (Italian ryegrass; [13]): 0
Plant response rating, Surinam Grass (Surinam grass [2]; [9]): 5
Plant response rating, Surinam Grass (Surinam grass [2]; [10]): 5
Plant response rating, Surinam Grass (Surinam grass [2]; [11]): 10
Plant response rating, Surinam Grass (Surinam grass [2]; [12]): 0
Plant response rating, Surinam Grass (Surinam grass [2]; [13]): 0
Plant response rating, Velvetleaf (velvetleaf; [9]): 30
Plant response rating, Velvetleaf (velvetleaf; [10]): 40
Plant response rating, Velvetleaf (velvetleaf; [11]): 75
Plant response rating, Velvetleaf (velvetleaf; [12]): 20
Plant response rating, Velvetleaf (velvetleaf; [13]): 35
Plant response rating, Dayflower, VA (dayflower, VA; [9]): 5
Plant response rating, Dayflower, VA (dayflower, VA; [10]): 10
Plant response rating, Dayflower, VA (dayflower, VA; [11]): 65
Plant response rating, Dayflower, VA (dayflower, VA; [12]): 0
Plant response rating, Dayflower, VA (dayflower, VA; [13]): 0
Plant response rating, Green Foxtail (green foxtail; [9]): 75
Plant response rating, Green Foxtail (green foxtail; [10]): 100
Plant response rating, Green Foxtail (green foxtail; [11]): 100
Plant response rating, Green Foxtail (green foxtail; [12]): 25
Plant response rating, Green Foxtail (green foxtail; [13]): 30
Plant response rating, Soybean (soybean; [9]): 15
Plant response rating, Soybean (soybean; [10]): 0
Plant response rating, Soybean (soybean; [12]): 0

CCCc1cc(C(=O)NC(C)C)nn1Cc1cc(C(F)(F)F)nn1C [Compound 201]
Plant response rating, Italian Ryegrass (Italian ryegrass; [10]): 30
Plant response rating, Italian Ryegrass (Italian ryegrass; [11]): 75
Plant response rating, Italian Ryegrass (Italian ryegrass; [14]): 75
Plant response rating, Italian Ryegrass (Italian ryegrass; [13]): 0
Plant response rating, Surinam Grass (Surinam grass [2]; [10]): 0
Plant response rating, Surinam Grass (Surinam grass [2]; [11]): 35
Plant response rating, Surinam Grass (Surinam grass [2]; [14]): 65
Plant response rating, Surinam Grass (Surinam grass [2]; [13]): 0
Plant response rating, Velvetleaf (velvetleaf; [10]): 0
Plant response rating, Velvetleaf (velvetleaf; [11]): 30
Plant response rating, Velvetleaf (velvetleaf; [14]): 100
Plant response rating, Velvetleaf (velvetleaf; [13]): 0
Plant response rating, Velvetleaf (velvetleaf; preemergence, scale 0 to 100, 100 is complete control): 0
Plant response rating, Dayflower, VA (dayflower, VA; [10]): 0
Plant response rating, Dayflower, VA (dayflower, VA; [11]): 35
Plant response rating, Dayflower, VA (dayflower, VA; [14]): 65
Plant response rating, Dayflower, VA (dayflower, VA; [13]): 0
Plant response rating, Green Foxtail (green foxtail; [10]): 40
Plant response rating, Green Foxtail (green foxtail; [11]): 75
Plant response rating, Green Foxtail (green foxtail; [14]): 80
Plant response rating, Green Foxtail (green foxtail; [13]): 0
Plant response rating, Soybean (soybean; Preemergence, 16 g ai/ha, scale 0 to 100): 0
Plant response rating, Soybean (soybean; [11]): 40
Plant response rating, Soybean (soybean; [14]): 40
Plant response rating, Soybean (soybean; [13]): 0
